For the test, the system named is CEM cells HIV-1 protection, formazan growth assay. The experiment in a line: NCI AIDS Antiviral Assay. Particulars: for IC50: measured here: growth of uninfected CEM cells. The essentials:
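Screen of anti-HIV-1 activity in human CEM cells using a formazan-based growth measurement at five drug concentrations. Hits with 50% or greater protection were repeated, and confirmation required reproducible complete protection.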

Calls of active or inactive are those of the source.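 Rule for the calls: active = compounds giving half or more protection of infected cells from virus-caused growth loss, again on retest; inactive = the rest.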 Where a SMILES comes first, the peptide text is derived from it.

`NCCCNCc1c2ccccc2c(CNCCCN)c2ccccc12`: the EC50 is greater than 120 µM and the IC50 worked out at 1.95 µM. Consider `COc1cc(C(=C2SCCS2)c2nccc3cc(OC)c(OC)cc23)c([N+](=O)[O-])cc1OC`, for which the outcome was inactive. With `Cn1c(=O)[nH]c2c(c1=O)Cc1ccccc1S2(=O)=O`, the EC50 was greater than 389 µM and the half-maximal inhibitory concentration (IC50) is 148 µM. For `CSC1NC(c2ccccc2)=C(C#N)C(=O)N1C1OCC(OC(C)=O)C(OC(C)=O)C1OC(C)=O` (stereo not given) the same measures were greater than 200 µM and 148 µM.

As to `CC(=O)NCC1OC2COC(c3ccccc3)OC2C(NC(=O)c2ccccc2)C1OC(=O)c1ccccc1` (stereo not given), the outcome was inactive. As for `COC(=O)CCC12CCC(=O)C1[C@@H](C(=O)OC)C[C@H]2C(=O)OC` (stereo not given in full), the result was inactive.

For the compound `N#Cc1c(N2CCCCC2)[nH]c(=O)n(-c2ccccc2)c1=S`, the EC50 was greater than 200 µM and the concentration for half-maximal inhibition (IC50) is greater than 200 µM.

As to `O=c1oc2ccccc2c(O)c1C(c1ccc(O)cc1)c1c(O)c2ccccc2oc1=O`, the outcome was inactive. On to `O=C(Nc1nc2ccccc2n1Cc1ccccc1)NC12CC3CC(CC(C3)C1)C2`, for which the EC50 is greater than 200 µM and the IC50 was greater than 200 µM. For `O=C1OC(c2ccccc2)=N/C1=C\c1ccccc1O`, the EC50 is greater than 26.9 µM and the IC50 was greater than 26.9 µM. As to `CCOC(=O)/C(=C/c1ccc(OC)c(OC)c1)P(=O)(OCC)OCC`, the EC50 was greater than 676 µM and the IC50 was determined as 85.1 µM. As to `O=[N+]([O-])C(=C/c1ccccc1)/C(=C\c1ccccc1)[N+](=O)[O-]`, the EC50 is greater than 200 µM and the IC50 amounted to 15.5 µM.

On to `Cc1nc2c(=O)[nH]ncc2[nH]1`, for which the EC50 is greater than 200 µM and the IC50 is greater than 200 µM. Take `CN(NC(=O)c1cccs1)C1=NCCCCN1`: the EC50 was greater than 200 µM and the IC50 was greater than 200 µM. On to `Brc1cccc[n+]1Cc1ccccc1C[n+]1ccccc1Br`, for which the EC50 was greater than 200 µM and the concentration for half-maximal inhibition (IC50) was greater than 200 µM. Take `O=C(N/N=C/c1ccccn1)c1ccccc1[O-].O=C(N/N=C/c1ccccn1)c1ccccc1[O-].[Mn+2]`: the EC50 was greater than 200 µM and the half-maximal inhibitory concentration (IC50) worked out at 11.2 µM. Consider `COc1cccc2c1C(=O)OC2c1cccc2ccccc12` (stereo not given), for which the result was inactive. Regarding `O=c1cc(CNC2CC3CCC2C3)[nH]c(=O)[nH]1` (stereo not given), the outcome was inactive. On to `O=C/C(=C(/Br)I)c1ccccc1`, for which the EC50 was greater than 200 µM and the concentration for half-maximal inhibition (IC50) was found to be 1.26 µM.

For the compound `COC(=O)C(C([CH-][N+](=O)[O-])c1ccccc1)[P+](c1ccccc1)(c1ccccc1)c1ccccc1` (stereo not given), the EC50 was greater than 200 µM and the IC50 amounted to 10.7 µM.

With `O=C1C2CC=C3CCS(=O)C3C2C(=O)N1c1ccccc1` (stereo not given), the EC50 was greater than 417 µM and the IC50 is greater than 417 µM. Turning to `CCCc1cc(=O)c2c(C)c3[nH]c4ccc(Cl)cc4c3c(C)c2[nH]1`, the EC50 is greater than 200 µM and the IC50 stood at 11 µM. Take `CN(C)CCn1c2c3ccccc3ccc2c2oc(=O)c3ccccc3c21`: the EC50 was greater than 18.2 µM and the half-maximal inhibitory concentration (IC50) was 8.51 µM. For `COc1ccc(C(=O)/C=C/c2ccncc2)cc1OC` the same measures were greater than 200 µM and 3.02 µM. Regarding `CCCCn1c2c(c3ccccc3c1=O)C(=O)c1ccccc1-2`, the EC50 was greater than 69.2 µM and the IC50 amounted to 33.9 µM. For `O=C(C#CP(=O)(O)c1ccccc1)c1ccccc1`, the EC50 was greater than 200 µM and the IC50 was greater than 200 µM. Turning to `O=C(CCN1CCC(CCO)CC1)Nc1ccc2c(c1)C(=O)c1ccc(NC(=O)CCN3CCC(CCO)CC3)cc1C2=O`, the EC50 is greater than 200 µM and the IC50 stood at 43.7 µM. For `O=C1CC(c2ccc(Cl)cc2)=Nc2ccccc2N1` the same measures were 6.31 µM and 95.5 µM.

Turning to `O=C(CCCC[P+](c1ccccc1)(c1ccccc1)c1ccccc1)c1ccccc1`, the EC50 was greater than 200 µM and the IC50 came out at 0.661 µM.

With `N#Cc1ccc(SSc2ccc(C#N)cc2)cc1`, the EC50 was greater than 200 µM and the half-maximal inhibitory concentration (IC50) was found to be 9.55 µM.

`Cc1ccc(Cc2nn(C)c(=O)n2-n2cccc2)cc1`: the EC50 was greater than 200 µM and the IC50 amounted to 102 µM. For the compound `C#CCNC(=O)NCCCCC(NC(=O)OCc1ccccc1)C(=O)OCc1ccccc1` (stereo not given), the EC50 was greater than 151 µM and the IC50 amounted to 97.7 µM. Turning to `Cc1ccc(/C=C/C(=N/NC(=O)N/N=C(/C=C/c2ccc(C)cc2)C(C)(C)CN2CCCCC2)C(C)(C)CN2CCCCC2)cc1`, the EC50 was greater than 200 µM and the half-maximal inhibitory concentration (IC50) stood at 3.02 µM.

With `CC(NC(=O)C(C)NC(=O)C(CC(N)=O)NC(=O)CN)C(=O)NC(CO)C(=O)NC(C)C(=O)NC(CCCN=C(N)N)C(=O)NC(CCCN=C(N)N)C(N)=O` (stereo not given) (H-GNAASARR-NH2; configuration not given here), the result was inactive. On to `CCOC(=O)/C(C#N)=N\Nc1ccc(-n2c(C)nc3ccccc3c2=O)cc1`, for which the EC50 is greater than 200 µM and the IC50 is 89.1 µM. The like results for `CC(C)(C)C1CCC(=O)C(C(O)CC2CC(=O)N(c3ccccc3)C(=O)C2)C1` (stereo not given) were, in that order, greater than 200 µM and greater than 200 µM. For the compound `O=C1OC(CN2CCN(c3ccccc3)CC2)CN1C(=S)Nc1ccccc1` (stereo not given), the EC50 is greater than 200 µM and the 50% inhibitory concentration (IC50) is 115 µM. In the case of `NC(=O)n1ncc(Cl)c(Cl)c1=O`, the EC50 is greater than 91.2 µM and the 50% inhibitory concentration (IC50) was determined as 47.9 µM. Turning to `CS(=O)(=O)O[C@H]1[C@H](O)c2ccccc2[C@@H]1N=[N+]=[N-]`, the EC50 is greater than 200 µM and the IC50 was greater than 200 µM.

On to `COC(=O)c1ccc2c(c1)CC1(C2)Cc2ccc3c(c2C1)CCC3` (stereo not given), for which the EC50 was greater than 200 µM and the IC50 was greater than 200 µM.

For the compound `CCCCCCCCCCCCCC(=O)OCC1OC(n2cc(F)c(=O)[nH]c2=O)C(N)C(OC(=O)CCCCCCCCCCCCC)C1O` (stereo not given), the EC50 is greater than 7.41 µM and the IC50 was greater than 7.41 µM.

With `CC1(C)COC(C2Cc3ccccc3C(O)(c3ccccc3)C2)=N1` (stereo not given), the EC50 was greater than 200 µM and the IC50 is greater than 200 µM. With `CCCCc1c2c(nc3c1CCCC3O)CCCC2` (stereo not given), the EC50 is greater than 200 µM and the IC50 worked out at 81.3 µM. As for `NC(C(=O)O)/C1=C/CCCCCC1` (stereo not given), the EC50 is greater than 200 µM and the IC50 is greater than 200 µM.

`COc1ccccc1N=Nc1c(-c2ccccc2)nn(C(=O)CC(=O)Nc2ccccc2Cl)c1-c1ccccc1`: the EC50 is greater than 13.2 µM and the IC50 was greater than 13.2 µM. On to `CC(=O)O[C@]12CCCCC1C1(O)C(O)CCCC[C@H]12` (stereo not given in full), for which the EC50 was greater than 200 µM and the IC50 is greater than 200 µM. Take `C=C1C(=O)O[C@@H]2CC(C)C3C(O)CC(O)[C@@]3(C)C[C@H]12` (stereo not given in full): the EC50 is greater than 933 µM and the half-maximal inhibitory concentration (IC50) turned out to be 14.1 µM. The like results for `COc1c(-c2cccs2)oc2c(CC(=O)O)cccc2c1=O` were, in that order, greater than 200 µM and 91.2 µM. For `O=C1C=CC=C/C1=C1\N=C(c2ccccc2OCC(=O)c2ccccc2)SS1`, the EC50 was greater than 50.1 µM and the concentration for half-maximal inhibition (IC50) was 4.27 µM. Regarding `CCC1CC2CN3CCc4c([nH]c5ccc(OC)cc45)C(C(=O)OC)(C2)C13` (stereo not given), the outcome was inactive. Turning to `CS(=O)CCN=Cc1ccc(N=Nc2ccc(O)cc2)cc1` (stereo not given), the EC50 is greater than 200 µM and the IC50 worked out at 1.78 µM. As for `Cn1cc2ccccc2c1-c1nc(F)nc(Oc2ccc3c(c2)CC[C@@H]2C3CC[C@@]3(C)C2CC[C@@H]3O)n1` (stereo not given in full), the EC50 was greater than 5.5 µM and the IC50 is greater than 5.5 µM. Turning to `CCOC(=O)C1=C(C)NC(c2ccco2)=C(C#N)C1c1cccc([N+](=O)[O-])c1` (stereo not given), the EC50 is greater than 0.2 µM and the IC50 came out at 0.0832 µM. Consider `CCCCCC=C(c1cc(Cl)c(O)c(C(=O)NO)c1)c1cc(Cl)c(O)c(C(=O)NO)c1`, for which the EC50 was greater than 200 µM and the IC50 came to 35.5 µM.

As to `CC1CCCC2(C1)OCC(O)CO2` (stereo not given), the outcome was inactive. `Cc1ccc(NC2=NCCS2)c(C)c1`: the EC50 was greater than 200 µM and the IC50 is greater than 200 µM. `O=C(O)[C@@H]1CSCN1C(=O)c1cccnc1SSc1ncccc1C(=O)N1CSC[C@H]1C(=O)O`: the EC50 was greater than 200 µM and the concentration for half-maximal inhibition (IC50) is greater than 200 µM. Consider `C=CC1(CC[C@]2(c3ccc(OC)c(OC)c3)C=[N+]([O-])O[C@H](O[C@@H]3CCCC[C@H]3C(C)(C)c3ccccc3)C2)OCC(C)(C)CO1`, for which the EC50 is greater than 200 µM and the IC50 is 11.2 µM. The like results for `COc1ccc(C2(OC)Oc3ccccc3C(=O)C2(O)O)cc1` (stereo not given) were, in that order, greater than 200 µM and 12.6 µM. The like results for `CCC1=CCC23C(=O)C=CC(=O)C2(C1)C(=O)c1cccc(OC)c1C3=O` (stereo not given) were, in that order, greater than 20 µM and 1.05 µM. With `Cc1ccc(/C=C2\CCCC(CN(C)C)C2=O)cc1` (stereo not given), the EC50 was greater than 200 µM and the 50% inhibitory concentration (IC50) is 0.617 µM. Take `COc1ccc(S(=O)Cc2cc(OC)ccc2OC)cc1` (stereo not given): the outcome was inactive. As to `O=C(OC[C@H]1C[C@H]2C(=O)OCCC[C@H]2O1)c1ccccc1`, the EC50 is greater than 200 µM and the concentration for half-maximal inhibition (IC50) is greater than 200 µM. As for `O=C1CCCC2=C1CC1=C(CCCC1=O)N2c1ccc([N+](=O)[O-])cc1`, the EC50 is greater than 200 µM and the half-maximal inhibitory concentration (IC50) was greater than 200 µM. `CC(C)CCC[C@@H](C)[C@H]1CC[C@H]2[C@@H]3CC[C@H]4C[C@@H](CC/C=C(/c5ccc(OCc6ccccc6B(O)O)c(C(=O)O)c5)c5cc(Cl)c(OCc6ccccc6B(O)O)c(C(=O)O)c5)CC[C@]4(C)[C@H]3CC[C@]12C`: the EC50 is greater than 200 µM and the IC50 is greater than 200 µM.

With `CC(C(N)C(=O)NC(C(=O)O)C1OC(c2c[nH]c(=O)[nH]c2=O)C(O)C1O)C(O)c1ccc(O)cn1` (stereo not given), the result was inactive. For the compound `N=c1c2ccccc2nnn1Cc1ccccc1`, the EC50 is greater than 178 µM and the concentration for half-maximal inhibition (IC50) is greater than 178 µM. As to `N/C(=N/O)C(F)(F)C(F)(F)C(F)(F)/C(N)=N\O`, the EC50 is greater than 200 µM and the IC50 is greater than 200 µM. `Cn1c2ccccc2n2c3ncccc3c(=S)c(C#N)c12`: the EC50 was greater than 200 µM and the IC50 was greater than 200 µM. In the case of `Cc1ccc(S(=O)OC23CC4CC(CC(C4)C2)C3)cc1` (stereo not given), the result was inactive. `CCCCCCNC(=O)Sc1ccccc1C(=O)N[C@H](C)C(N)=O` returned a concentration giving a half-maximal response (EC50) of 0.141 µM and an IC50 of 107 µM.

The record behind these values is PubChem BioAssay AID179 (DTP/NCI, 2004).
